Holding throughout (format): cell-based, mouse
The test system of series [1] is Fas. The series can be described thus: Immunoblot analysis of Fas re-expression in K-ras NIH 3T3 cells. Particulars: 10 μM 5-aza for 72 h. Here is the method: (§1) Cell culture. NIH 3T3 (ATCC# CRL-1658) and K:Molv NIH 3T3 (ATCC# CRL-6361; referred to here as K-ras NIH 3T3) cells were maintained in DMEM supplemented with 10% FCS at 37° C. and 5% CO2. For 5-aza-2′-deoxycytidine (5-aza) treatment, K-ras NIH 3T3 cells were treated with 10 μM 5-aza for 72 h.
Immunoblot analysis. To prepare cell extracts, K-ras NIH 3T3 knockdown cell lines were harvested 7 days following retroviral transduction and puromycin selection (1.5 μg ml^−1) and lysed by boiling in 1× SDS sample buffer (Laemmli buffer) for 5 min. Proteins were resolved by 12% SDS-PAGE. Immunoblot analysis was performed using an anti-Fas (sc-716; Santa Cruz) or anti-p21 Ras (ab16795; Abcam) antibody to monitor expression of K-Ras (as a loading control), and an appropriate HRP-conjugated secondary antibody. Proteins were visualized using SuperSignal West Pico Luminol/Enhancer Solution (Pierce).
A general note: A western blot detects proteins with antibodies after separation by electrophoresis.

Series [2] deals with Fas promoter. The series can be described thus: Methylated DNA immunoprecipitation (MeDIP) of the Fas promoter. Particulars: K-ras NIH 3T3 cells, 10 μM 5-aza for 72 h. An excerpt: To facilitate analysis of the methylation status of these three regions in the 28 K-ras NIH 3T3 KD cell lines we established and validated a rapid methylated DNA immunoprecipitation (MeDIP) assay, in which the antibody is directed against 5-methyl-cytosine (Weber, M. et al., Nat. Genet. 37, 853-862 (2005)). […] We then assessed the three hypermethylated Fas promoter regions in each of the 28 K-ras NIH 3T3 KD cell lines.
(§2) Chromatin immunoprecipitation (ChIP) and methylated DNA immunoprecipitation (MeDIP). ChIP assays were performed using extracts prepared 7 days following retroviral transduction and puromycin selection. […] MeDIP and ChIP products were visualized by autoradiography, or analyzed by quantitative real-time PCR using Platinum SYBR Green qPCR SuperMix-UDG with Rox (Invitrogen). […] Quantitative real time RT-PCR. […] Reverse transcription was performed using SuperScript II Reverse Transcriptase (Invitrogen) as per the manufacturer's instructions, followed by quantitative real-time PCR as described above. […] Tumour dimensions were measured every 3 days from the time of appearance of the tumours, and tumour volume was calculated using the formula π/6×(length)×(width)^2. […]

For series [3], the system named is Sfrp1, Par4/Pawr, Plagl1, H2-K1 and Lox. The series can be described thus: qRT-PCR expression of other epigenetically silenced genes in K-ras NIH 3T3 cells. Conditions: 10 μM 5-aza for 72 h. The protocol: as §1, §2
The test system of series [4] is Fas promoter. In words: Bisulphite sequencing of the Fas promoter. Particulars: shRNA knockdown. The protocol: Bisulphite sequencing. Bisulphite modification was carried out essentially as described (Frommer, M. et al., Proc. Natl. Acad. Sci. USA 89, 1827-1831 (1992)) except that hydroquinone was used at a concentration of 125 mM during bisulphite treatment carried out in the dark and DNA was desalted on Qiaquick columns (Qiagen) after the bisulphite reaction. The regions analyzed were amplified by nested PCR. The first round comprised 24 cycles at 94° C. for 1 min, 48° C. for 1 min 30 s, and 72° C. for 1 min. One-tenth of the product was used as substrate for the second round of PCR comprising 28 cycles at 94° C. for 1 min, 48° C. for 1 min 30 s, 72° C. for 1 min.

For the molecule `Nc1ncn([C@H]2C[C@H](O)[C@@H](CO)O2)c(=O)n1` [5-aza, 5-aza-2′-deoxycytidine], the Fas expression entry in series [1] is “restored Fas expression”. In addition, the “hypermethylation of Fas promoter TSS/DS region (MeDIP)” value in series [2] is “not hypermethylated”. Besides, in series [3], the “expression of Sfrp1, Par4/Pawr, Plagl1, H2-K1 and Lox (all five genes)” value was “re-expressed”.

B1: DNMT1: shRNA knocking down DNMT1; Open Biosystems V2MM_46797 or synthesized shRNA SEQ ID NO: 5 (nucleic acid)
chain: TGCTGTTGACAGTGAGCGCGCCCATCCTCAGGGACCATATTAGTGAAGCCACAGATGTAATATGGTCCCTGAGGATGGGCTTGCCTACTGCCTCGGA
With B1, the “hypermethylation of three Fas promoter regions (bisulphite sequencing)” value in series [4] (H-ras transformed C3H10T1/2 cells) was “not”. Besides, the “hypermethylation of TSS/DS region of the Fas promoter (bisulphite sequence analysis)” value in series [4] (K-ras NIH 3T3 cells) is “no longer hypermethylated”.

These data come from patent US20100137411A1, “RAS-MEDIATED EPIGENETIC SILENCING EFFECTORS AND USES THEREOF” (University of Massachusetts, priority 2007, published 2010).
